The nature of test [1]: Antihypertensive activity, spontaneous hypertensive rat, indirect tail cuff method. In kind it is in vivo. The following applies: three days, measured on third day. The method, then: The spiro[benzofuran-2(3H),1'-cycloheptane]s of formula I of the present invention are useful as antihypertensive agents due to their ability to depress blood pressure in mammals. Antihypertensive activity is measured in the spontaneous hypertensive rat by the indirect tail cuff method described in "Methods in Pharmacology", A. Schwartz, Ed., Vol. I, Appleton-Century Crofts, New York, N. Y., 1971, p. 135. In this procedure a group of five animals are treated orally for three days with the test compound in relation to a control group of the same number. The drop in blood pressure is measured on the third day following administration. The antihypertensive activities of some of the compounds, expressed as a decrease in mean arterial blood pressure (in mm Hg), are given in Table I.

A short description of test [2]: Anticonvulsant activity, supramaximal electroshock assay (SES). The following applies: Mus musculus, ip. The class given is in vivo, mice. The method, then:
Compounds I of the present invention are useful as anticonvulsant agents. […] Groups of male mice (18-30 grams) are used. Drugs are prepared using distilled water and if insoluble, a surfactant is added. Control animals receive vehicle. Drugs are routinely administered intraperitoneally. The dosage volume is 10 ml/kg.
The animal's eyes are placed across the output terminals of an A.C. shocker that delivers 206 volts rms for 300 milliseconds. Electrode paste coats the animal's eyes at the point of contact with the terminals.
Protection is expressed as normalized percent inhibition relative to vehicle control. [formula]
A time response is carried out using 6 animals per group. Animals are tested at 30, 60 and 120 minutes postdrug. Additional time periods are tested if indicated by previous tests.
When the peak activity time has been determined, a dose response is initiated, using 10 animals per group at that time period. The ED50 and 95% confidence interval are calculated by computerized probit analysis.
A general note: Protection in the maximal electroshock model is a classic sign of anticonvulsant action.

The nature of test [3]: Inhibition of tetrabenazine-induced ptosis (antidepressant activity). The class given is in vivo, mice. The following applies: Mus musculus, ip, 0.5 h; i.p.; tetrabenazine 40 mg/kg i.p. 30 minutes after. The method, then:
Compounds I of the present invention are useful as antidepressant agents due to their ability to prevent tetrabenazine induced ptosis in mice. The method used is as follows.
Male mice weighing 20 to 30 grams are used in test groups of five subjects. All compounds are dissolved, or suspended with one drop of a non-ionic surfactant in distilled water and administered in volumes of 10 ml/kg of body weight. Tetrabenazine (TBZ) solution is made from methanesulfonate salt and the concentration is adjusted to enable the administration of 40 mg/kg of base by intraperitoneal injection (i.p.).
If the test compound is administered intraperitoneally, TBZ is injected 30 minutes after administration. If the test compound is administered orally (p.o.), TBZ is injected 60 minutes after the administration. A control group received solvent and TBZ by the same route and at the same intervals as the drug groups.
Thirty and sixty minutes after TBZ injection the subjects are placed in individual plastic containers (10/1/2"×8"×6") and one minute after transfer they are scored for ptosis on the followig scale: eyes closed=4, eyes 3/4 closed=3, eyes 1/2 closed=2, eyes 1/4 closed=1, and eyes open=0. The total score for each group of five will therefore be from 0 to 20 and these scores are used as indications of drug activity.
The vehicle-control group score is used as a determinate of the validity of each test. […]

Test [4] is described as follows: Analgesic activity, 2-phenyl-1,4-benzoquinone-induced writhing test. In kind it is in vivo, mice. An excerpt:
Compounds I of the present invention are useful as analgesic agents due to their ability to alleviate pain in mammals. […] Exptl. Biol. Med., 95, 729 (1957)].
(An intraperitoneal irritant provokes the stretching counted in writhing tests.)

The values below come from patent US4623657A, “Spiro [benzofuran-2(3H),1'-cycloheptane]s and their therapeutic use” (Hoechst-Roussel Pharmaceuticals Inc., priority 1985, dated 1986).

Structures can show the parent of a compound that is named as a salt.

With `C[C@](N)(Cc1ccc(O)c(O)c1)C(=O)O` [alpha-Methyldopa, reference compound], the “Blood Pressure Drop” value in test [1] (50 mg/kg p.o.) worked out at 40 mm Hg.

As usually defined, the ED50 is the midpoint of the dose-response relation. Low readings indicate an effect at a small dose, high ones a need for a large dose. On to `CN(C)CCO/N=C1/c2ccccc2OC12CCCCCC2` [(Z)-O-Dimethylaminoethyl-spiro[benzofuran-2(3H),1'-cycloheptan]-3-one oxime maleate], for which the median effective dose (ED50) in test [2] is 30.2 mg/kg; in test [3], 72.5 mg/kg.

On to `CN(CCCC1c2ccccc2OC12CCCCCC2)CCc1ccccc1.O=C(O)/C=C/C(=O)O` (stereo not shown) [N-Methyl-N-(2-phenylethyl)-spiro[benzofuran-2(3H),1'-cycloheptane]-3-propanamine fumarate], for which, in test [1] (50 mg/kg p.o.), the “Blood Pressure Drop” value is reported as 76 mm Hg.

Broadly, the % Inhibition is how much of the control response was suppressed. Regarding `CC(C)NCC(O)CO/N=C1/c2ccccc2OC12CCCCCC2` (stereo not shown) [(Z)-O-[3-[(1-Methylethyl)amino]-2-hydroxypropyl]spiro[benzofuran-2(3H),1'-cycloheptan]-3-one oxime maleate], in test [4], the “% Inhibition at 20 mg/kg, s.c.” value turned out to be 40%.

`CN(CCCC(c1ccc(F)cc1)c1ccc(F)cc1)CCCC1c2ccccc2OC12CCCCCC2` (stereo not shown) [N-[4-[Bis(4-fluorophenyl)]-butyl]-N-methyl-spiro[benzofuran-2(3H),1'-cycloheptane]-3-propanamine fumarate]: in test [4], the “% Inhibition at 20 mg/kg, s.c.” value is 70%. Besides, the “Blood Pressure Drop” value in test [1] (30 mg/kg p.o.) turned out to be 61 mm Hg.

On to `CN(CCCC1c2ccccc2OC12CCCCCC2)Cc1ccccc1` (stereo not shown) [N-Methyl-N-[3-[spiro[benzofuran-2(3H),1'-cyclohept-3-yl]]propyl]benzenemethanamine maleate], for which the “% Inhibition at 20 mg/kg, s.c.” value in test [4] is reported as 54%.

Turning to `CN(C)CCCC1c2cc(Cl)ccc2OC12CCCCCC2.Cl` (stereo not shown) [5-Chloro-3-(3-dimethylaminopropyl)-spiro[benzofuran-2(3H),1'-cycloheptane] hydrochloride], in test [4], the “% Inhibition at 20 mg/kg, s.c.” value is 40%.

On to `CCC(=O)O[C@](Cc1ccccc1)(c1ccccc1)[C@H](C)CN(C)C` [Propoxyphene, reference compound], for which the ED50 in test [4] (Mus musculus, sc) amounted to 3.9 mg/kg.

Molecule `CN(C)CCCC1c2ccccc2OC12CCCCCC2` (stereo not shown) [3-(3-Dimethylaminopropyl)-spiro[benzofuran-2(3H),1'-cycloheptane]hydrochloride] displayed a median effective dose (ED50) in test [2] of 30.6 mg/kg.

`CNC1=Nc2ccc(Cl)cc2C(c2ccccc2)=[N+]([O-])C1` [Chlordiazepoxide, reference compound]: the 50% effective dose (ED50) in test [2] amounted to 8 mg/kg.

As for `CN(C)CCC=C1c2ccccc2OC12CCCCCC2`, the “Blood Pressure Drop” value in test [1] (50 mg/kg p.o.) came to 32 mm Hg.
